Assays:
[1] = target: E. coli RNA polymerase (Escherichia coli, UniProt P0A8T7); experiment: RNA polymerase inhibition, radioisotope (3H UTP) labelling transcription assay with calf thymus DNA; type: biochemical; conditions: 0.8 μM of 3 with 0.4 μM E. coli RNA polymerase, incubated 15 min, dialysed overnight; native enzyme count = 100%
Procedure: In a typical experiment, the course of transcription of calf thymus DNA by E. coli RNA polymerase was monitored in the presence and absence of the redox system 3. The enzyme aliquot after admixing with 3 was incubated for 15 minutes and then dialyzed overnight. A general transcription assay was then carried out in a medium, which contained ^3H UTP in addition to other nucleotides. The amount of radioactive UTP (uridine triphaspate) incorporated in the transcribed RNA was monitored by scintillation counter and the count, when compared to that obtained on using native enzyme gave the percentage loss of activity.
A mixture containing 0.8 μM solution of 3 (5 μL from 8 μM stock in methanol) and 0.4 μM of E. coli RNA polymerase (5 μl from 4 μM stock) in 1×transcription buffer ^a (5 μL) and 35 μL of milliQ water was incubated for 15 min, and dialysed ^b overnight, 4×Transcription assay mixture ^c (10 μL) was diluted with 10 μL of milliQ water and admixed with 20 μL of treated and dialyzed enzyme. The mixture was incubated for 20 minutes and spotted on to a DE81 filter paper strip ^d, which was pre-coated with EDTA to arrest further transcription. The filter paper strips were allowed to air dry for three hours, washed successively with 5% Na2HPO4 solution (3×200 mL, 10 min. each), distilled water (2×200 mL, 5 min. each) and then with ethanol (2×75 mL). […]

[2] = Stability at normal conditions; type: physicochemical

Sequence of E. coli RNA polymerase (P0A8T7 whole entry): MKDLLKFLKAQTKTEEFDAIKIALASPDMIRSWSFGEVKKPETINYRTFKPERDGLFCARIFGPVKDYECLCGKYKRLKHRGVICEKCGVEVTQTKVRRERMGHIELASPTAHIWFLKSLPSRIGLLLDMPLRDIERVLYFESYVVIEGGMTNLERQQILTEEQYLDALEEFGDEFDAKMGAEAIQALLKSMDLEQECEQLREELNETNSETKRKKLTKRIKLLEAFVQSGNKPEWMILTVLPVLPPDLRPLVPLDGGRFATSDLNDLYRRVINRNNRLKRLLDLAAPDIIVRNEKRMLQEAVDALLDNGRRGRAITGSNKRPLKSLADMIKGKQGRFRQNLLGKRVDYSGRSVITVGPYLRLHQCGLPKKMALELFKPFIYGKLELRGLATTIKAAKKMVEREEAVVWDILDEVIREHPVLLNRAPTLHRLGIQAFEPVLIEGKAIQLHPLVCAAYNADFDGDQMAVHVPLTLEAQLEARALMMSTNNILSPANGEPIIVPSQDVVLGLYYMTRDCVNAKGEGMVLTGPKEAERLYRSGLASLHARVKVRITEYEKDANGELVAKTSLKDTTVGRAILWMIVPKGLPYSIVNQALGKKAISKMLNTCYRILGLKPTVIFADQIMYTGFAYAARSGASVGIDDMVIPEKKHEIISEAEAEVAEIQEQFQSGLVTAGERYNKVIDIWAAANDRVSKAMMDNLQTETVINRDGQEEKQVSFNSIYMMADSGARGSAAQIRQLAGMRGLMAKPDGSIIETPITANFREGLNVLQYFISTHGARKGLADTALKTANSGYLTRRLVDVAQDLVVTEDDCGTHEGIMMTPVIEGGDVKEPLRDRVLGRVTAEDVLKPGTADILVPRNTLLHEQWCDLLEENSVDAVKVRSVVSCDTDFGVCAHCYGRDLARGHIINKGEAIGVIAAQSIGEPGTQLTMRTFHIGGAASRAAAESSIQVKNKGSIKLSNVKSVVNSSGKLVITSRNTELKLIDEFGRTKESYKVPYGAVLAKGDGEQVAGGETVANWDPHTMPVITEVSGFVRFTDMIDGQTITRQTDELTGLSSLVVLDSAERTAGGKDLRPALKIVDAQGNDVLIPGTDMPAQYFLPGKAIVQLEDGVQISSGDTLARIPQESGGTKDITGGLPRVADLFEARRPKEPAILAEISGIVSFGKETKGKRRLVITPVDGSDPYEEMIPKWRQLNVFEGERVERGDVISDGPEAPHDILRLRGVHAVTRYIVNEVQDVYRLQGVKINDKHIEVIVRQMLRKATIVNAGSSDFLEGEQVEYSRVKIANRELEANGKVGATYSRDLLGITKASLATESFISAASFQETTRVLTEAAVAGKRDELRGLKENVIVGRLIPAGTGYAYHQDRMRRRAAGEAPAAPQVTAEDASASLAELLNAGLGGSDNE
Sequence of E. coli RNA polymerase (P0A8V2 whole entry partner): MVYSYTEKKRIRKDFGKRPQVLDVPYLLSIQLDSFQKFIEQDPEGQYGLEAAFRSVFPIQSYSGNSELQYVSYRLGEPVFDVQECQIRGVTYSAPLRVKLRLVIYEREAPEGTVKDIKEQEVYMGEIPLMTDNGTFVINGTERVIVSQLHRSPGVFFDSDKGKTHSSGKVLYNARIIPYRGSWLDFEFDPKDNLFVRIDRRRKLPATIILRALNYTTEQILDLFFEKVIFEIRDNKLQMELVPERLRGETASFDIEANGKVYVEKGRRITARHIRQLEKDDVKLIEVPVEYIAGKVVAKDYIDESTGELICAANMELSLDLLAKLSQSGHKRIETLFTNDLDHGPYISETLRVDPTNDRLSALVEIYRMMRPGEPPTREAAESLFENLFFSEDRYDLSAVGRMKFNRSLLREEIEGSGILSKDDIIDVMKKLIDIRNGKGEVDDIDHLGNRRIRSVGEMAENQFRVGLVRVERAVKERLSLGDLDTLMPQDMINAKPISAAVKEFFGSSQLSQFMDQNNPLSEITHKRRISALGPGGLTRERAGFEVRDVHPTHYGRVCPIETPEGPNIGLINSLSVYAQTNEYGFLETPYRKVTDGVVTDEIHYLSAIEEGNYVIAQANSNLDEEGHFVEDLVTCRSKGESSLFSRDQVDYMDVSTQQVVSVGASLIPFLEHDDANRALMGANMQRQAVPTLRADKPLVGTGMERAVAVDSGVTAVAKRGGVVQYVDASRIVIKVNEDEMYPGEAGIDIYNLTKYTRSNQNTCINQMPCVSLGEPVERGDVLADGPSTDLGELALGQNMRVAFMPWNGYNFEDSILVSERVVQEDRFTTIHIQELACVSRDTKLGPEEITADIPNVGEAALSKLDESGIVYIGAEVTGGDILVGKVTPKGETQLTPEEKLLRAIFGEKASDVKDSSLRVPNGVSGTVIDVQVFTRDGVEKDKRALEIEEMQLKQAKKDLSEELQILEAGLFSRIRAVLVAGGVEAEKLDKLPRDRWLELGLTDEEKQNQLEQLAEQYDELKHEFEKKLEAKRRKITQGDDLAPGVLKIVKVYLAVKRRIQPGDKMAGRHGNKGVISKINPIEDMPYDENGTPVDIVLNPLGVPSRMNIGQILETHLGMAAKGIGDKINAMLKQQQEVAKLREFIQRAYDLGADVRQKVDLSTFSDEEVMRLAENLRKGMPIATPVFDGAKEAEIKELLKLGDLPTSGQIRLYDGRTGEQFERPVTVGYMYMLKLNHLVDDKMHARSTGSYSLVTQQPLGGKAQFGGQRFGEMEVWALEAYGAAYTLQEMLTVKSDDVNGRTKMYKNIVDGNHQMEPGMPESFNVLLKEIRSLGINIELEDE
Sequence of E. coli RNA polymerase (P0A7Z4 whole entry partner): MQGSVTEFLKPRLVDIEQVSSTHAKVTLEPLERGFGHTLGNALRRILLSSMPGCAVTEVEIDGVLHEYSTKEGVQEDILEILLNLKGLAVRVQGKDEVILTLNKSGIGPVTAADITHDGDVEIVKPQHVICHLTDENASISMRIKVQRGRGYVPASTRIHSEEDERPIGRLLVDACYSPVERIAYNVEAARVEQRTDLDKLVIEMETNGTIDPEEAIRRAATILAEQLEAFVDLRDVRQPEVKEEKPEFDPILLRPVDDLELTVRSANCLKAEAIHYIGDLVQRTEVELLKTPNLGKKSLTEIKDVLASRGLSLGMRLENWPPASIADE
Sequence of E. coli RNA polymerase (P00579 whole entry partner): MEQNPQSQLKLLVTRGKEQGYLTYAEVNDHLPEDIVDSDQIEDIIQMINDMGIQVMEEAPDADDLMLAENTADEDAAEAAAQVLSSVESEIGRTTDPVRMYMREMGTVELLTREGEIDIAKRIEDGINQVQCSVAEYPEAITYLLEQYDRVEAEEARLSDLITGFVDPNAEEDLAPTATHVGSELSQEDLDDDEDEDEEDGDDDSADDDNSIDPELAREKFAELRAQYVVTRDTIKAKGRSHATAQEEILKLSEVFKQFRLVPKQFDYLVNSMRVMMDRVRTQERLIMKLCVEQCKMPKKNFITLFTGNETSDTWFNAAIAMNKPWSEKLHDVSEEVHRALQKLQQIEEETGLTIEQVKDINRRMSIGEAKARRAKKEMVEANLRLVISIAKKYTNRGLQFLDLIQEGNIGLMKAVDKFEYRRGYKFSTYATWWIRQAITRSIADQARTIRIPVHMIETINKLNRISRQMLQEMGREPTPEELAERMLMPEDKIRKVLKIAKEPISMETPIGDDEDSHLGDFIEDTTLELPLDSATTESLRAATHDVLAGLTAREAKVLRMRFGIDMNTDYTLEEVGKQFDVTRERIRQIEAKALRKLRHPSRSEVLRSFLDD

## COC(=O)C(Cc1cnc[nH]1)n1sc2ccccc2c1=O [compound 3, benziso-N(L-histidine methylester)-thiazolone]
[1]
  activity compared to the native enzyme: 53%
  inhibition of activity: 47%
[2]
  stability: stable at normal conditions
